We go through two molecules from ChEMBL document CHEMBL4630901 (2021).

As usually defined, the inhibition is the drop in the measured response relative to a control, in per cent.

Common to all, as to settings: Compound concentration 10.0 uM
The target of assay [1] is T1, Muscarinic acetylcholine receptor M1 (Homo sapiens) (UniProt P11229).
T1 sequence (whole entry): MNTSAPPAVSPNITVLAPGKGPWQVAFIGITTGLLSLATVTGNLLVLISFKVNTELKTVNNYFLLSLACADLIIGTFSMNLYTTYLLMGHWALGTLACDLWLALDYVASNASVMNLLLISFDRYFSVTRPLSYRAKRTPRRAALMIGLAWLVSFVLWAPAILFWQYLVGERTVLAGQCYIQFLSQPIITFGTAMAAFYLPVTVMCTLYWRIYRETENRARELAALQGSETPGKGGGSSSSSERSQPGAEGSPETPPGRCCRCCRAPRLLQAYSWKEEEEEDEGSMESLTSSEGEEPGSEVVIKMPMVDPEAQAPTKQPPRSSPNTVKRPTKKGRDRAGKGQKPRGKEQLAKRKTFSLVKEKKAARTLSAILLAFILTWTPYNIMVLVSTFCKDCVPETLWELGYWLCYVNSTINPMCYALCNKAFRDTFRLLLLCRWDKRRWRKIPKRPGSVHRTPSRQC

Assay [2] deals with Kappa-type opioid receptor (Homo sapiens) (UniProt P41145).
Sequence of Kappa-type opioid receptor (Homo sapiens) (P41145 whole entry): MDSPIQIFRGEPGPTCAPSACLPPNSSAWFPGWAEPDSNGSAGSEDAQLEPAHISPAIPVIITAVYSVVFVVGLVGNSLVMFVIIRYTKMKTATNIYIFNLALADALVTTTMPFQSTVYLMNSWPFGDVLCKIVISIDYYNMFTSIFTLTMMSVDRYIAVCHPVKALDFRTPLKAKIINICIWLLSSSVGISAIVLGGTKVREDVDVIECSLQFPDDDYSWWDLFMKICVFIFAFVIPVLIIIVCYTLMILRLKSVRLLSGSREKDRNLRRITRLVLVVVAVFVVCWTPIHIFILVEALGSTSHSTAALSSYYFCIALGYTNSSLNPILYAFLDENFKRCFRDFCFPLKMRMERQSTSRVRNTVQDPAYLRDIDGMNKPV
Assay [3] addresses 5-hydroxytryptamine receptor 5A (Homo sapiens) (UniProt P47898).
A further assay is filed under the species Rattus norvegicus.
For assay [4], the target named is T2, 5-hydroxytryptamine receptor 2C (Homo sapiens) (UniProt P28335).
T2 sequence (whole entry): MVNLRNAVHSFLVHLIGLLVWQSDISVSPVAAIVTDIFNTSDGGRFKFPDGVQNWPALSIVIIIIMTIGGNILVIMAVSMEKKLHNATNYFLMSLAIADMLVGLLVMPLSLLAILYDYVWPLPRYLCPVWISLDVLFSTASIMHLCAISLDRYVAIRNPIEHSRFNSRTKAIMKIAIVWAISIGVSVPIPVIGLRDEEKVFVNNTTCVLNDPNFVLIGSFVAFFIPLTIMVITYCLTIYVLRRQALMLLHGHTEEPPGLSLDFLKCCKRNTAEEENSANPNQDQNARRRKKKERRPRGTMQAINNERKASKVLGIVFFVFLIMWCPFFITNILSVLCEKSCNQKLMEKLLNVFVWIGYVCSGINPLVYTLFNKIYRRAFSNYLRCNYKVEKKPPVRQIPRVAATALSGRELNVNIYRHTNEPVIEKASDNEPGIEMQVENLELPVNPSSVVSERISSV

The target of assay [5] is Histamine H1 receptor (Homo sapiens) (UniProt P35367).
Sequence of Histamine H1 receptor (Homo sapiens) (P35367 whole entry): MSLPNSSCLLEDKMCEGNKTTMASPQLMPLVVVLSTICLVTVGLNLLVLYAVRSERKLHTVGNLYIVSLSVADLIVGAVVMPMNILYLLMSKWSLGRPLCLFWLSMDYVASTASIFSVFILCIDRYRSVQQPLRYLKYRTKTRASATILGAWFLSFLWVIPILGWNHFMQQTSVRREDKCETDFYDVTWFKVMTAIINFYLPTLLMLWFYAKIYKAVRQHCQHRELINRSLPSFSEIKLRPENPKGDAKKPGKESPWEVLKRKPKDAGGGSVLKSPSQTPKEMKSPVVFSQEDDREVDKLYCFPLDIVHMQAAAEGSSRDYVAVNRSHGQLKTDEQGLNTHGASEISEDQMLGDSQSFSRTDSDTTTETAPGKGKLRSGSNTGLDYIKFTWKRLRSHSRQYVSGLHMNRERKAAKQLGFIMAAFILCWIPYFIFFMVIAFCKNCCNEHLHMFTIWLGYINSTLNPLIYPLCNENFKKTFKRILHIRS
Assay [6] deals with T3, Alpha-2A adrenergic receptor (Homo sapiens) (UniProt P08913).
T3 sequence (whole entry): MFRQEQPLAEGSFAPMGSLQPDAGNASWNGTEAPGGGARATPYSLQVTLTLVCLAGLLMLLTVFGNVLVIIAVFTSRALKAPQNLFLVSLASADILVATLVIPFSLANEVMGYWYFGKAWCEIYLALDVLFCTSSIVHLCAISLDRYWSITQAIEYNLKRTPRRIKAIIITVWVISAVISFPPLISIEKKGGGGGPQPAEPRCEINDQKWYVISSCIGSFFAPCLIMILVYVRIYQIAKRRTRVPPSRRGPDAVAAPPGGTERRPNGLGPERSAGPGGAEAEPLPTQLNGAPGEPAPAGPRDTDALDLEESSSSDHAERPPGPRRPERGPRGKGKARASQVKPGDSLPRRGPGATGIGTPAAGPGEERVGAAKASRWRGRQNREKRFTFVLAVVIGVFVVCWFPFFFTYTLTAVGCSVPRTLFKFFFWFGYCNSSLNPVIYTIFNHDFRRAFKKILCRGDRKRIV

In assay [7] the target is Histamine H2 receptor (Homo sapiens) (UniProt P25021).
Sequence of Histamine H2 receptor (Homo sapiens) (P25021 whole entry): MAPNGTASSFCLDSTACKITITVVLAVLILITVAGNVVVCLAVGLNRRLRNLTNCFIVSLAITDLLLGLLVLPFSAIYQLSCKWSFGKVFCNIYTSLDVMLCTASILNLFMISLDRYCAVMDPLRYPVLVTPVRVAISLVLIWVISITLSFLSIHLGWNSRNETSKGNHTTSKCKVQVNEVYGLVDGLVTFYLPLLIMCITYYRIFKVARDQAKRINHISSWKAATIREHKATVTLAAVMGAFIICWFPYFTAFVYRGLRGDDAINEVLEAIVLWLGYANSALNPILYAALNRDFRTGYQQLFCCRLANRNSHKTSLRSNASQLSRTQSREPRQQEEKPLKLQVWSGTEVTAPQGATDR
Assay [8] addresses 5-hydroxytryptamine receptor 6 (Homo sapiens) (UniProt P50406).
Assay [9] addresses Sigma intracellular receptor 2 (Homo sapiens, UniProt Q5BJF2).
Assay [10] has as its target Alpha-1B adrenergic receptor (Homo sapiens) (UniProt P35368).
For assay [11], the target named is 5-hydroxytryptamine receptor 2B (Homo sapiens) (UniProt P41595).
Sequence of 5-hydroxytryptamine receptor 2B (Homo sapiens) (P41595 whole entry): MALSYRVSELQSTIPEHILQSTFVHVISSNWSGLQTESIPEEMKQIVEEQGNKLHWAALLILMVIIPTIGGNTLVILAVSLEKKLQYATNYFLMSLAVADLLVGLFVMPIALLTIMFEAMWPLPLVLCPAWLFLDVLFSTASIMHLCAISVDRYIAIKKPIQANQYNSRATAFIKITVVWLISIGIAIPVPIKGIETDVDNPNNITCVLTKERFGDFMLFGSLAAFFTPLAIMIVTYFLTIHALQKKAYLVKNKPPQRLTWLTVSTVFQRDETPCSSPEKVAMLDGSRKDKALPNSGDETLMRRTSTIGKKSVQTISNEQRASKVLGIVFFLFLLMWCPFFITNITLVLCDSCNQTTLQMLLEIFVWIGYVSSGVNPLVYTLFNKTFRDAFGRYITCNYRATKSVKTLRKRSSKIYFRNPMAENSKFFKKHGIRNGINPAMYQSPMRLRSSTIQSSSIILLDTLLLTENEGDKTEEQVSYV
Assay [12] concerns the target T4, 5-hydroxytryptamine receptor 1A (Homo sapiens) (UniProt P08908).
T4 sequence (whole entry): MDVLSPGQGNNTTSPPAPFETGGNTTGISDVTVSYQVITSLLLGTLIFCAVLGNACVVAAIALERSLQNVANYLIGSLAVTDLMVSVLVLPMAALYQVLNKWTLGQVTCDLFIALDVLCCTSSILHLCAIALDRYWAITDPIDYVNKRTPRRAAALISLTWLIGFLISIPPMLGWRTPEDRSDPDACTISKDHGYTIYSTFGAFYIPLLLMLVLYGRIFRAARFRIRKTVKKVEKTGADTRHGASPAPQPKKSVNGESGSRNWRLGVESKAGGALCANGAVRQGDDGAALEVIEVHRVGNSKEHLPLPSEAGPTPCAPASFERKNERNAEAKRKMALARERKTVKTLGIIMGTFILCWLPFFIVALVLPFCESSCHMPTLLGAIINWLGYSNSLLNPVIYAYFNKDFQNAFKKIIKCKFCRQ

For assay [13], the target named is T5, Muscarinic acetylcholine receptor M4 (Homo sapiens) (UniProt P08173).
T5 sequence (whole entry): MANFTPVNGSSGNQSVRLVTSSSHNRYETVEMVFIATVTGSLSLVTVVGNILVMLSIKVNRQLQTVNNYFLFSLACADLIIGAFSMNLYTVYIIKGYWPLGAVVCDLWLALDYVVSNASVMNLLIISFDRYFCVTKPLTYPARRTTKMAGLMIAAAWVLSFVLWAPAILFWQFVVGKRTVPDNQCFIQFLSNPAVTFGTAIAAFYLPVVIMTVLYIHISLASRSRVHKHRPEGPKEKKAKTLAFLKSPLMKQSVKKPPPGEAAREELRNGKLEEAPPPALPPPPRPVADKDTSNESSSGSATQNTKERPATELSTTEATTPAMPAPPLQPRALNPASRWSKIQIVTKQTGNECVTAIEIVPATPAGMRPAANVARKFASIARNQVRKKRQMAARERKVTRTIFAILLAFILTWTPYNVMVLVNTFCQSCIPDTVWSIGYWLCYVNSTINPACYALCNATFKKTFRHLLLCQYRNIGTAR

The target of assay [14] is 5-hydroxytryptamine receptor 2A (Homo sapiens) (UniProt P28223).
Sequence of 5-hydroxytryptamine receptor 2A (Homo sapiens) (P28223 whole entry): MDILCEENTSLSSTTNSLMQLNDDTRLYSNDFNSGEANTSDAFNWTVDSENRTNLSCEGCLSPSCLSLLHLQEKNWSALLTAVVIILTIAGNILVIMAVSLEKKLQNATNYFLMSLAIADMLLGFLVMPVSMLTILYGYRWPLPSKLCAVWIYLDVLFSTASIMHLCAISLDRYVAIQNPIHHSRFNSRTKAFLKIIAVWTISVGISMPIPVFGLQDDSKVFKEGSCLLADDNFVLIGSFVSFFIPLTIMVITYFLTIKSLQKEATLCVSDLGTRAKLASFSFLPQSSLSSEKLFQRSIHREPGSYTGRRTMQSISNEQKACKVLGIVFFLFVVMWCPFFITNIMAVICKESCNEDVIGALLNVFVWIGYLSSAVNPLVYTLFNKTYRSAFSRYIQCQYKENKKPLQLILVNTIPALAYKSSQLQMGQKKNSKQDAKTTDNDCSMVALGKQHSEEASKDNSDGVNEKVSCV

Molecules are shown by their SMILES.

Sequence of 5-hydroxytryptamine receptor 5A (Homo sapiens) (P47898 whole entry): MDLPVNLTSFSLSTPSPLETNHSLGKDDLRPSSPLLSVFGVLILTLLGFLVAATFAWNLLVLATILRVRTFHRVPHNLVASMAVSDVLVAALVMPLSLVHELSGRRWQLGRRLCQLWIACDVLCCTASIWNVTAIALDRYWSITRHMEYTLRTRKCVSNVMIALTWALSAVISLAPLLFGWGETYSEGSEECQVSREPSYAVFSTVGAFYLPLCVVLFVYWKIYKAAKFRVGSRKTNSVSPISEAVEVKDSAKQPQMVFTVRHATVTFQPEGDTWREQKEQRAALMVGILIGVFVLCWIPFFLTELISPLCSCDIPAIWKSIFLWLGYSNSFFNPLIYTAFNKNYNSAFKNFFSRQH
Sequence of Alpha-1B adrenergic receptor (Homo sapiens) (P35368 whole entry): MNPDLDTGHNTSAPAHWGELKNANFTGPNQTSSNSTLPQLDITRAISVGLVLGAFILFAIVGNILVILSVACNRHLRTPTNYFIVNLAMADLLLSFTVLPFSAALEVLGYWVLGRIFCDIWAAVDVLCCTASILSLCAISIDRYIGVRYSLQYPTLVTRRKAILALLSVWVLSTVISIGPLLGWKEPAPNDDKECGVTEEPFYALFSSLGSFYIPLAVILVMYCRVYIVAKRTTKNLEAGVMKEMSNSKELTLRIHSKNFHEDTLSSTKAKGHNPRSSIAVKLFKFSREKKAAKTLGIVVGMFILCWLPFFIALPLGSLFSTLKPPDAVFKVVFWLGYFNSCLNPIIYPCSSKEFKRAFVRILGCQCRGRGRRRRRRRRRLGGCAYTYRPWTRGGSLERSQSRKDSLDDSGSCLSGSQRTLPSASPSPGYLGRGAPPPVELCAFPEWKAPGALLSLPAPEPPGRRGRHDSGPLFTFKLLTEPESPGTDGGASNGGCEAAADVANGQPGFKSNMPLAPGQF
Sequence of Sigma intracellular receptor 2 (Q5BJF2 whole entry): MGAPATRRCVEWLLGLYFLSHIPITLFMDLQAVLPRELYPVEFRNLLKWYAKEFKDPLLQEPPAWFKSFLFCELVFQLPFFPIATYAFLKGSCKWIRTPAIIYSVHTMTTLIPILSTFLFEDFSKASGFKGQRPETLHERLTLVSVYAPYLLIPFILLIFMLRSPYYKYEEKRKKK
Sequence of 5-hydroxytryptamine receptor 6 (Homo sapiens) (P50406 whole entry): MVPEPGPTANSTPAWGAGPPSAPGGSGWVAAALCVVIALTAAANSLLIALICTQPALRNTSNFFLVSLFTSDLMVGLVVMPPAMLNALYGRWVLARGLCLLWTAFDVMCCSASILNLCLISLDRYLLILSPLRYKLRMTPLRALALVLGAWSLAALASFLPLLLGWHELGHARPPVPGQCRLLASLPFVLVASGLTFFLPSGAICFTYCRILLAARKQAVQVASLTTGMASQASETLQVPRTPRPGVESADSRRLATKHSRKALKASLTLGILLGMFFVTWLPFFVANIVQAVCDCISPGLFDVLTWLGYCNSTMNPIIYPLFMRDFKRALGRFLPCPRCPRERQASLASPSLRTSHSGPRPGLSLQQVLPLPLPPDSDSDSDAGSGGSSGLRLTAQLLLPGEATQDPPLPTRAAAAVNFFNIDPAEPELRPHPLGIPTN

As to `Cc1c(N2CCNCC2)nc2ccc(Br)cc2c1C(=O)NC[C@H](CCC(=O)O)c1ccccc1Cl` [BAY-403], the inhibition in assay [1] is 8.42%; in [2], 17.7%; in assay [3], 11.3%; in the assay filed under Rattus norvegicus, 20%; in assay [4], 12.7%; in assay [5] it was 17.5%. The inhibition in [6] is 65%; in assay [7] it was -4.15%; in [8], 1.76%; in [9], 60%; in [10] it was -2.31%; in assay [11], 31%. The inhibition in assay [12] is 47.1%; in [13], 16.2%; in [14], 38%.

Take `Cc1c(N2CCCC2)nc2ccc(Br)cc2c1C(=O)NC[C@H](CCC(=O)O)c1ccccc1Cl` [BAY-6672]: the inhibition in [1] is 14.3%; in [2] it was 15.4%; in assay [3], -5.32%; in the assay listed under Rattus norvegicus, -2.43%; in [4], 2.98%; in assay [5], 4.61%. Further, the inhibition in [6] is -4.59%; in assay [7], 23.3%; in assay [8], 6.59%; in assay [9] it was 8.52%; in assay [10], -4.96%; in assay [11], 5.5%. The inhibition in assay [12] was 5.62%; in assay [13], 19.4%; in assay [14], 5.24%.
